Experimental findings from patent publication US12522594B2, “2-heteroaryl-3-oxo-2,3-dihydropyridazine-4-carboxamides for the treatment of cancer” (Deutsches Krebsforschungszentrum, priority 2017, dated 2026) are described below.

As usually defined, the IC50 is the concentration that gives 50% inhibition.

Test [1] addresses T1, AHR (Homo sapiens, UniProt P35869).
T1 sequence (P35869 11-848): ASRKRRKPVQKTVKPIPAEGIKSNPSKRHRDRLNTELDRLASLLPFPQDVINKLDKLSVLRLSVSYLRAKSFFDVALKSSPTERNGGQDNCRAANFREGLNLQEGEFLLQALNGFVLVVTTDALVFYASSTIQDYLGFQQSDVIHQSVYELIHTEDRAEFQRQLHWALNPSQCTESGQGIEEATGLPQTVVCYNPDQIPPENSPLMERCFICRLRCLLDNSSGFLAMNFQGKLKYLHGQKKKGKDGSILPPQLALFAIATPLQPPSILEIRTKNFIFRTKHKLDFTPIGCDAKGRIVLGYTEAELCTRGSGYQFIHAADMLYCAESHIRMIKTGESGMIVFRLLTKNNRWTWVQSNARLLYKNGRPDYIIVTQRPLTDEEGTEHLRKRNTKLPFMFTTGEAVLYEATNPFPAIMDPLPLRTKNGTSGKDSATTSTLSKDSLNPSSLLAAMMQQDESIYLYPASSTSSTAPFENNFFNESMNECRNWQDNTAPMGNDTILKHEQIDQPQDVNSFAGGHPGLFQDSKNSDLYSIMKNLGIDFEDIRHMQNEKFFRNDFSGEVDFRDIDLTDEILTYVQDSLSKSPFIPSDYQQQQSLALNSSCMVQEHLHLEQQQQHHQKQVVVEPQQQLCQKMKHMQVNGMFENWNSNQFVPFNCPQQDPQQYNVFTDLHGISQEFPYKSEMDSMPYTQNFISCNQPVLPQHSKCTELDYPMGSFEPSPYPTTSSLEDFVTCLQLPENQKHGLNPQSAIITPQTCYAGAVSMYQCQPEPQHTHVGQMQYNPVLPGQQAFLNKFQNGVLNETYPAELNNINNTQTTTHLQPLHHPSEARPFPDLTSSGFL
The experiment in a line: In vitro assay 1: antagonism in human cell line (transactivation assay, U87 cells prestimulated with kynurenic acid, DRE firefly luciferase reporter). Type of test: cell-based. The arrangement: host or cells: U87 glioblastoma cells, stably transfected with DRE firefly luciferase and renilla reporter constructs. The conditions noted are these: 150 uM kynurenic acid, 20 hours, read-out: Assay 1: AHR-luc Hum Antagonism IC50. The gist of the method:
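U87 glioblastoma cells with endogenous AHR, stably carrying a DRE-driven firefly luciferase reporter and a constitutive renilla reporter. Cells prestimulated with the AHR agonist kynurenic acid before compound addition; data normalized to positive and negative controls.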

The target of test [2] is T1, AHR. The experiment in a line: In vitro assay 2: agonism in human cell line (transactivation assay, U87 cells, DRE firefly luciferase reporter). The conditions noted are these: no kynurenic acid, 20 hours, read-out: Assay 2: AHR-luc Hum Agonism IC50. Type of test: cell-based. Set-up: host or cells: U87 glioblastoma cells, stably transfected with DRE firefly luciferase and renilla reporter constructs. In a few lines:
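U87 glioblastoma cells with endogenous AHR, stably carrying DRE-driven firefly luciferase and constitutive renilla reporters. 300 uM kynurenic acid served as positive activation control; data normalized to positive and negative controls.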
A general note: A reporter such as luciferase makes a cellular process visible.

Take `Cn1cc(-n2nc(-c3ccc(Cl)cc3)cc(C(=O)N[C@@H]3CCC[C@]3(C)O)c2=O)cn1` (single isomer, unassigned) [Example 335, 6-(4-Chlorophenyl)-N-[(cis)-2-hydroxy-2-methylcyclopentyl]-2-(1-methyl-1H-pyrazol-4-yl)-3-oxo-2,3-dihydropyridazine-4-carboxamide]: the IC50 is 11.3 nM in test [1] and more than 20000 nM in test [2].
Turning to `O=C(N[C@H]1CCC[C@@H]1O)c1cc(-c2ccc(OC(F)(F)F)cc2)nn(-c2cccnc2)c1=O` [Example 132, N-[(1S,2S)-2-Hydroxycyclopentyl]-3-oxo-2-(pyridin-3-yl)-6-[4-(trifluoromethoxy)phenyl]-2,3-dihydropyridazine-4-carboxamide], the IC50 in test [1] was 6.88 nM; in test [2], more than 20000 nM.
As to `O=C(N[C@H]1CCC[C@H]1O)c1cc(-c2ccc(Cl)cc2)nn(-c2ccnnc2)c1=O` [Example 167, 3-(4-Chlorophenyl)-N-[(1S,2R)-2-hydroxycyclopentyl]-6-oxo-6H-1,4′-bipyridazine-5-carboxamide], the half-inhibitory concentration (IC50) is 239 nM in test [1] and more than 20000 nM in test [2].
Turning to `C[C@H](NC(=O)c1cc(-c2ccc(C(F)(F)F)nc2)nn(-c2cnsc2)c1=O)C(C)(C)O` [Example 233, N-[(2S)-3-Hydroxy-3-methylbutan-2-yl]-3-oxo-2-(1,2-thiazol-4-yl)-6-[6-(trifluoromethyl)pyridin-3-yl]-2,3-dihydropyridazine-4-carboxamide], the IC50 in test [1] was 8.23 nM; in test [2], 17200 nM.
Turning to `O=C(N[C@H]1COC[C@H]1O)c1cc(-c2ccc(Cl)cc2)nn(-c2cccnc2)c1=O` (racemic) [Example 171, rac-6-(4-chlorophenyl)-N-[(cis)-4-hydroxytetrahydrofuran-3-yl]-3-oxo-2-(pyridin-3-yl)-2,3-dihydropyridazine-4-carboxamide], the results for the half-maximal inhibitory concentration (IC50) in test [1] and in test [2] were 58.4 nM and more than 20000 nM, respectively.
In the case of `C[C@@H](CO)NC(=O)c1cc(-c2ccc(C(F)(F)F)cc2)nn(-c2cn[nH]c2)c1=O` [Example 244, N-[(2S)-1-Hydroxypropan-2-yl]-3-oxo-2-(1H-pyrazol-4-yl)-6-[4-(trifluoromethyl)phenyl]-2,3-dihydropyridazine-4-carboxamide], the figures for the IC50 in test [1] and in test [2] were 11.9 nM and more than 20000 nM, respectively.
For the molecule `C[C@@H](NC(=O)c1cc(-c2ccc(Cl)cc2)nn(-c2cncnc2)c1=O)C(C)(C)O` [Example 265, 6-(4-Chlorophenyl)-N-[(2R)-3-hydroxy-3-methylbutan-2-yl]-3-oxo-2-(pyrimidin-5-yl)-2,3-dihydropyridazine-4-carboxamide], the concentration for half-maximal inhibition (IC50) in test [1] was 48.8 nM; in test [2], more than 20000 nM.
In the case of `Cn1cc(-n2nc(-c3ccc(OC(F)F)cc3)cc(C(=O)NC(C(C)(C)O)C(F)(F)F)c2=O)cn1` (single isomer, unassigned) [Example 307, 6-[4-(Difluoromethoxy)phenyl]-2-(1-methyl-1H-pyrazol-4-yl)-3-oxo-N-(1,1,1-trifluoro-3-hydroxy-3-methylbutan-2-yl)-2,3-dihydropyridazine-4-carboxamide], the IC50 is 73.9 nM in test [1] and more than 20000 nM in test [2].
The matching figures for `CC(C)(O)CNC(=O)c1cc(-c2ccc(C(F)(F)F)cc2)nn(-c2cn[nH]c2)c1=O` [Example 266, N-(2-Hydroxy-2-methylpropyl)-3-oxo-2-(1H-pyrazol-4-yl)-6-[4-(trifluoromethyl)phenyl]-2,3-dihydropyridazine-4-carboxamide]: 56.8 nM and more than 20000 nM.
On to `CC(C)(O)CNC(=O)c1cc(-c2ccc(Cl)cc2)nn(-c2cnsc2)c1=O` [Example 222, 6-(4-Chlorophenyl)-N-(2-hydroxy-2-methylpropyl)-3-oxo-2-(1,2-thiazol-4-yl)-2,3-dihydropyridazine-4-carboxamide], for which the half-inhibitory concentration (IC50) is 4.27 nM in test [1] and more than 20000 nM in test [2].
`C[C@@H](CO)NC(=O)c1cc(-c2ccc(C(F)(F)F)cn2)nn(-c2cccnc2)c1=O` [Example 345, N-[(2S)-1-Hydroxypropan-2-yl]-3-oxo-2-(pyridin-3-yl)-6-[5-(trifluoromethyl)pyridin-2-yl]-2,3-dihydropyridazine-4-carboxamide]: the IC50 in test [1] is 55.3 nM; in test [2], more than 20000 nM.
Take `C[C@@H](CO)NC(=O)c1cc(-c2ccc(Cl)cc2F)nn(-c2cccnc2)c1=O` [Example 163, 6-(4-Chloro-2-fluorophenyl)-N-[(2S)-1-hydroxypropan-2-yl]-3-oxo-2-(pyridin-3-yl)-2,3-dihydropyridazine-4-carboxamide]: the IC50 in test [1] was 134 nM; in test [2], more than 20000 nM.
`C[C@@H](CO)NC(=O)c1cc(-c2ccc(C(F)(F)F)cc2)nn(-c2cnn(C(F)F)c2)c1=O` [Example 261, 2-[1-(Difluoromethyl)-1H-pyrazol-4-yl]-N-[(2S)-1-hydroxypropan-2-yl]-3-oxo-6-[4-(trifluoromethyl)phenyl]-2,3-dihydropyridazine-4-carboxamide]: the IC50 in test [1] was 33 nM; in test [2], more than 20000 nM.
Taken in the same sequence, the figures for `O=C(N[C@@H]1CSC[C@@H]1O)c1cc(-c2ccc(C(F)(F)F)cc2)nn(-c2cccnc2)c1=O` (relative stereo) [Example 290, N-cis-4-Hydroxytetra-hydrothiophen-3-yl-3-oxo-2-(pyridin-3-yl)-6-[4-(trifluoromethyl)phenyl]-2,3-dihydropyridazine-4-carboxamide] were 2.82 nM and more than 20000 nM.
In the case of `C[C@]1(O)CCC[C@H]1NC(=O)c1cc(-c2ccc(OC(F)(F)F)cc2)nn(-c2cccnc2)c1=O` (single isomer, unassigned) [Example 329, N-[(cis)-2-hydroxy-2-methylcyclopentyl]-3-oxo-2-(pyridin-3-yl)-6-[4-(trifluoromethoxy)phenyl]-2,3-dihydropyridazine-4-carboxamide], the IC50 in test [1] is 29.4 nM; in test [2], more than 20000 nM.
Taken in the same sequence, the figures for `Cn1cc(-n2nc(-c3ccc(OC(F)(F)F)cc3)cc(C(=O)N[C@@H]3COC[C@@H]3O)c2=O)cn1` (racemic) [Example 55, N-[(cis)-4-Hydroxytetrahydrofuran-3-yl]-2-(1-methyl-1H-pyrazol-4-yl)-3-oxo-6-[4-(trifluoromethoxy)phenyl]-2,3-dihydropyridazine-4-carboxamide] were 17.9 nM and more than 20000 nM.
For the molecule `O=C(N[C@H]1COC[C@@H]1O)c1cc(-c2ccc(Cl)cc2)nn(-c2cncc(F)c2)c1=O` (single isomer, unassigned; enantiomer 2) [Example 156, 6-(4-Chlorophenyl)-2-(5-fluoropyridin-3-yl)-N-[(trans)-4-hydroxytetrahydrofuran-3-yl]-3-oxo-2,3-dihydropyridazine-4-carboxamide, Enantiomer 2], the IC50 is 25 nM in test [1] and more than 20000 nM in test [2].
For the molecule `O=C(N[C@H](CO)C(F)(F)F)c1cc(-c2ccc(C(F)(F)F)cc2)nn(-c2cnn(C(F)F)c2)c1=O` [Example 214, 2-[1-(Difluoromethyl)-1H-pyrazol-4-yl]-3-oxo-N-[(2R)-1,1,1-trifluoro-3-hydroxypropan-2-yl]-6-[4-(trifluoromethyl)phenyl]-2,3-dihydropyridazine-4-carboxamide], the IC50 is 2.07 nM in test [1] and more than 20000 nM in test [2].
As for `O=C(NCC1(O)CC1)c1cc(-c2ccc(C(F)(F)F)cc2)nn(-c2cccnc2)c1=O` [Example 188, N-[(1-Hydroxycyclopropyl)methyl]-3-oxo-2-(pyridin-3-yl)-6-[4-(trifluoromethyl)phenyl]-2,3-dihydropyridazine-4-carboxamide], the results for the IC50 in test [1] and in test [2] were 12.5 nM and more than 20000 nM, respectively.
On to `CC(C)(O)C(NC(=O)c1cc(-c2ccc(C(F)(F)F)cc2)nn(-c2cccnc2)c1=O)C(F)(F)F` (single isomer, unassigned; (+)) [Example 197, (+)-3-Oxo-2-(pyridin-3-yl)-N-(1,1,1-trifluoro-3-hydroxy-3-methylbutan-2-yl)-6-[4-(trifluoromethyl)phenyl]-2,3-dihydropyridazine-4-carboxamide], for which the results for the half-maximal inhibitory concentration (IC50) in test [1] and in test [2] were 0.502 nM and more than 20000 nM, respectively.
With `O=C(NC[C@H](O)CO)c1cc(-c2ccc(Cl)cc2)nn(-c2cncc(F)c2)c1=O` [Example 99, 6-(4-Chlorophenyl)-N-[(2S)-2,3-dihydroxypropyl]-2-(5-fluoropyridin-3-yl)-3-oxo-2,3-dihydropyridazine-4-carboxamide], the results for the IC50 in test [1] and in test [2] were 129 nM and more than 20000 nM, respectively.
